Consider one compound from patent publication US8828438B2, “Pharmaceutical compositions of cholesteryl ester transfer protein inhibitors and HMG-CoA reductase” (Bend Research, Inc., priority 2005, dated 2014).

The data set can be described thus: aqueous solubility. As to conditions: aqueous environment, water; aqueous environments; about 22° C. unless otherwise specified. It is filed as physicochemical. From the text: The CETP inhibitor may be any compound capable of inhibiting the cholesteryl ester transfer protein. Solid amorphous dispersions are particularly useful for CETP inhibitors that have sufficiently low aqueous solubility, low bioavailability or slow rate of absorption such that it is desirable to increase their concentration in an aqueous environment of use. The CETP inhibitor is typically “sparingly water-soluble,” which means that the CETP inhibitor has a minimum aqueous solubility of less than about 1 to 2 mg/mL at any physiologically relevant pH (e.g., pH 1-8) and at about 22° C. Many CETP inhibitors are “substantially water-insoluble,” which means that the CETP inhibitor has a minimum aqueous solubility of less than about 0.01 mg/mL (or 10 μg/ml) at any physiologically relevant pH (e.g., pH 1-8) and at about 22° C. (Unless otherwise specified, reference to aqueous solubility herein and in the claims is determined at about 22° C.) Compositions of the present invention find greater utility as the solubility of the CETP inhibitors decreases, and thus are preferred for CETP inhibitors with solubilities less than about 10 μg/mL, more preferred for CETP inhibitors with solubilities less than about 2 μg/mL, and even more preferred for CETP inhibitors with solubilities less than about 1 μg/mL. […]

`CCOC(=O)N1c2ccc(C(F)(F)F)cc2[C@@H](N(Cc2cc(C(F)(F)F)cc(C(F)(F)F)c2)C(=O)OC)C[C@H]1CC` [torcetrapib, [2R,4S]-4-[(3,5-bis-trifluoromethyl-benzyl)-methoxycarbonyl-amino]-2-ethyl-6-trifluoromethyl-3,4-dihydro-2H-quinoline-1-carboxylic acid ethyl ester] gave a solubility of less than 0.04 µg/mL.
